One assay deals with T1, human TLR7 (Homo sapiens, UniProt Q9NYK1).
T1 construct: host or cells: HEK-Blue cells
T1 sequence (Q9NYK1 27-1049): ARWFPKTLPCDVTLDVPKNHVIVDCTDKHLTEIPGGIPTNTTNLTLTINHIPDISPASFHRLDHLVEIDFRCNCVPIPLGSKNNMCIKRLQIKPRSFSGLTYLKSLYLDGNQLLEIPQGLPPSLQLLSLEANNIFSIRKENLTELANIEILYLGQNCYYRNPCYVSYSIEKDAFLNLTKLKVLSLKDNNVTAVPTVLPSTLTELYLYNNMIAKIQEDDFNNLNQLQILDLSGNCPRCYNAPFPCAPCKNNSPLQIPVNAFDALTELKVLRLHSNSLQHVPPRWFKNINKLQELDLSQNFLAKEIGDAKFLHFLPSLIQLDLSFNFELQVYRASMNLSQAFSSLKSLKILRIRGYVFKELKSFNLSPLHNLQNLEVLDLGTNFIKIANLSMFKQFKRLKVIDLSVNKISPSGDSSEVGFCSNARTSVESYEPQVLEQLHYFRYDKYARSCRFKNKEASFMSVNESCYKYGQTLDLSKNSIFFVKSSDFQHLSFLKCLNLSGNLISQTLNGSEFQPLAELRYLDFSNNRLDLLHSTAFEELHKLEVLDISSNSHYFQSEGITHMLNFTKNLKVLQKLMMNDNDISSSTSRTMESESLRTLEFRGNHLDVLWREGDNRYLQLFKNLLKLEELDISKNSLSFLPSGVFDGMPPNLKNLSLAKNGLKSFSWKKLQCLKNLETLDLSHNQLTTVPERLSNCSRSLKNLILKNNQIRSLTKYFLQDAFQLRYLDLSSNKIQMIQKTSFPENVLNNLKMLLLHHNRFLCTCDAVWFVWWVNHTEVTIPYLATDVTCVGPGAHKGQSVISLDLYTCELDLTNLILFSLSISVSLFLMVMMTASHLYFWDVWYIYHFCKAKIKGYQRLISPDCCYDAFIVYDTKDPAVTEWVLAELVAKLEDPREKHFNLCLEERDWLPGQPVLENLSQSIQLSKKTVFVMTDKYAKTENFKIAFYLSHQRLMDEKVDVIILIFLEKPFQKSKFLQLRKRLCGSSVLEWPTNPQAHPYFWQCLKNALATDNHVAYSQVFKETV
Description: TLR7 inhibition reporter assay (HEK-Blue cells, SEAP reporter, gardiquimod stimulation). It is filed as cell-based. The following applies: HEK-Blue cells overexpressing human TLR7, gardiquimod 7.5 μM. In outline: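 In this cell reporter format, test compounds at 0.05 nM-50 μM final incubate 22 h with seeded cells (TLR7 15000, TLR8 20,000 per well). SEAP read-out by HEK-Blue Detection medium yields % inhibition relative to agonist/DMSO and known-inhibitor wells.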

In another assay the target is T2, human TLR9 (Homo sapiens, UniProt Q9NR96).
T2 construct: host or cells: HEK-Blue cells
T2 sequence (Q9NR96 26-1032): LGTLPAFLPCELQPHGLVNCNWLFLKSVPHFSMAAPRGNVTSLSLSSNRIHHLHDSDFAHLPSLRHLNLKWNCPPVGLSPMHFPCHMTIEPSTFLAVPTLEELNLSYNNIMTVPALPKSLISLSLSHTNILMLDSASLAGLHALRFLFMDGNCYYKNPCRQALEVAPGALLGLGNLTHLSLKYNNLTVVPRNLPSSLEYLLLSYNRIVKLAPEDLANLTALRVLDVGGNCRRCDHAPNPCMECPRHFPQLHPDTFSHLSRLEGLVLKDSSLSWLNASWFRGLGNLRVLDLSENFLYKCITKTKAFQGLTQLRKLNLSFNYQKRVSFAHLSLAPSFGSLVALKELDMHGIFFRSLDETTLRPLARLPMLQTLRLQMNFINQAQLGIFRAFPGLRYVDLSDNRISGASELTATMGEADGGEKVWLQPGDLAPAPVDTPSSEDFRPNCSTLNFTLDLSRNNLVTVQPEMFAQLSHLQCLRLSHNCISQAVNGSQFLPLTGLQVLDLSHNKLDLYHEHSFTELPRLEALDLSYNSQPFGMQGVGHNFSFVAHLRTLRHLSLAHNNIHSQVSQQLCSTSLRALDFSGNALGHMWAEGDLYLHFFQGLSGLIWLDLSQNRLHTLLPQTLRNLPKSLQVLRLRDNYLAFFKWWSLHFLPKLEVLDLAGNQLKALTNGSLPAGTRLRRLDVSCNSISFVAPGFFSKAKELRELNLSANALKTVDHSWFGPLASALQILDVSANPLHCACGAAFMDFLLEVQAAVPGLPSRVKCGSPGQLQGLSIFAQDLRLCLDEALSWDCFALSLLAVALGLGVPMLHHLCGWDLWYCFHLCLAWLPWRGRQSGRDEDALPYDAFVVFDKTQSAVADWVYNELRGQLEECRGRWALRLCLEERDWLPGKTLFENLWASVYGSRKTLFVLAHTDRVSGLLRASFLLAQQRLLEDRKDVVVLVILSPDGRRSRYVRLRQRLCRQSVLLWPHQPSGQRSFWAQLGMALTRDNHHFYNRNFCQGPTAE
Nature of the assay: TLR9 inhibition reporter assay (HEK-Blue cells, SEAP reporter, ODN2006 stimulation). The class given is cell-based. The conditions noted are these: HEK-Blue cells overexpressing human TLR9, ODN2006 5 nM. In outline:
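Dose–response from 0.05 nM to 50 μM was run in HEK-Blue human TLR7, TLR8 and TLR9 reporter cells. After 30 min at room temperature with compound, ligand was added (TLR7 gardiquimod 7.5 μM; TLR8 R848 15.9 μM; TLR9 ODN2006 5 nM) and SEAP measured next day, at 22 h.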

Molecules are shown by their SMILES.

Take `COc1ccc(-c2[nH]c3ccc(C4CCN(C(=O)C[C@@H](C)O)CC4)cc3c2CC(F)(F)F)cc1OC` [Example 353, (R)-1-(4-(2-(3,4-dimethoxyphenyl)-3-(2,2,2-trifluoroethyl)-1H-indol-5-yl)piperidin-1-yl)-3-hydroxybutan-1-one]: the values for the IC50 against human TLR7 and at human TLR9 were 229 nM and 40000 nM, respectively.
For the compound `COc1ccc(-c2[nH]c3ccc(C4CCNCC4(F)F)cc3c2C(C)C)cc1OC` (stereo not shown) [Example 325, 5-(3,3-difluoropiperidin-4-yl)-2-(3,4-dimethoxyphenyl)-3-isopropyl-1H-indole], the IC50 was 269 nM against human TLR7 and at least 50000 nM at human TLR9.
With `COc1ccc(-c2[nH]c3ccc(C4CCN(C(=O)CN(C)C)CC4)cc3c2C)cc1OC` [Example 402, 1-(4-(2-(3,4-dimethoxyphenyl)-3-methyl-1H-indol-5-yl)piperidin-1-yl)-2-(dimethylamino)ethan-1-one], the IC50 at human TLR7 is 544 nM; on human TLR9, 5820 nM.
For `COc1ccc(-c2[nH]c3ccc(C4CCN(C(=O)CCCN(C)C)CC4)cc3c2CC(F)(F)F)cc1OC` [Example 351, 1-(4-(2-(3,4-dimethoxyphenyl)-3-(2,2,2-trifluoroethyl)-1H-indol-5-yl)piperidin-1-yl)-4-(dimethylamino)butan-1-one] the same measures were 17 nM and 1560 nM.
For `COc1ccc(-c2[nH]c3ccc(C4CCN(CC(=O)N5CCC(N6CCN(C)CC6)CC5)CC4)cc3c2CC(F)(F)F)cc1OC` [Example 363, 2-(4-(2-(3,4-dimethoxyphenyl)-3-(2,2,2-trifluoroethyl)-1H-indol-5-yl)piperidin-1-yl)-1-(4-(4-methylpiperazin-1-yl)piperidin-1-yl) ethan-1-one] the same measures were 8 nM and 268 nM.
For `COc1ccc(-c2[nH]c3ccc(C4CCN(C(=O)Cc5c[nH]cn5)CC4)cc3c2CC(F)(F)F)cc1OC` [Example 334, 1-(4-(2-(3,4-dimethoxyphenyl)-3-(2,2,2-trifluoroethyl)-1H-indol-5-yl)piperidin-1-yl)-2-(1H-imidazol-4-yl)ethan-1-one] the same measures were 130 nM and 7770 nM.
As to `CCC(CC)NC(=O)CN1CCC(c2ccc3[nH]c(-c4ccc(OC)c(OC)c4)c(CC(F)(F)F)c3c2)CC1` [Example 378, 2-(4-(2-(3,4-dimethoxyphenyl)-3-(2,2,2-trifluoroethyl)-1H-indol-5-yl)piperidin-1-yl)-N-(pentan-3-yl)acetamide], the IC50 against human TLR7 came to 622 nM; against human TLR9 it was 14400 nM.
Consider `COc1ccc(-c2[nH]c3ccc(C4CCN(C(=O)CCc5cccnc5)CC4)cc3c2CC(F)(F)F)cc1OC` [Example 348, 1-(4-(2-(3,4-dimethoxyphenyl)-3-(2,2,2-trifluoroethyl)-1H-indol-5-yl)piperidin-1-yl)-3-(pyridin-3-yl) propan-1-one], for which the IC50 against human TLR7 worked out at 413 nM; against human TLR9, 15300 nM.
Consider `COc1ccc(-c2[nH]c3ccc(C4CCN(CC(=O)N(C)C)CC4)cc3c2CC(F)F)cc1OC` [Example 400, 2-(4-(3-(2,2-difluoroethyl)-2-(3,4-dimethoxyphenyl)-1H-indol-5-yl)piperidin-1-yl)-N,N-dimethylacetamide], for which the results for the IC50 at human TLR7 and against human TLR9 were 157 nM and 3960 nM, respectively.
`COc1ccc(-c2[nH]c3ccc(C4CCN(CC(=O)NCC(N)=O)CC4)cc3c2CC(F)(F)F)cc1OC` [Example 385, N-(2-amino-2-oxoethyl)-2-(4-(2-(3,4-dimethoxyphenyl)-3-(2,2,2-trifluoroethyl)-1H-indol-5-yl)piperidin-1-yl)acetamide]: the IC50 on human TLR7 amounted to 61 nM; on human TLR9, 4250 nM.
For the compound `COc1ccc(-c2[nH]c3ccc(C4CCN(C(=O)CS(C)(=O)=O)CC4)cc3c2CC(F)(F)F)cc1OC` [Example 347, 1-(4-(2-(3,4-dimethoxyphenyl)-3-(2,2,2-trifluoroethyl)-1H-indol-5-yl)piperidin-1-yl)-2-(methylsulfonyl)ethan-1-one], the figures for the IC50 on human TLR7 and against human TLR9 were 155 nM and 39100 nM, respectively.
For `COc1ccc(-c2[nH]c3ccc(C4CCN(CC(=O)N(C)CCN(C)C)CC4)cc3c2CC(F)(F)F)cc1OC` [Example 367, 2-(4-(2-(3,4-dimethoxyphenyl)-3-(2,2,2-trifluoroethyl)-1H-indol-5-yl)piperidin-1-yl)-N-(2-(dimethylamino)ethyl)-N-methylacetamide] the same measures were 23 nM and 441 nM.
Take `COc1ccc(-c2[nH]c3ccc(C4CCN(CC(=O)N5CCN(C(C)=O)CC5)CC4)cc3c2CC(F)(F)F)cc1OC` [Example 361, 1-(4-acetylpiperazin-1-yl)-2-(4-(2-(3,4-dimethoxyphenyl)-3-(2,2,2-trifluoroethyl)-1H-indol-5-yl)piperidin-1-yl)ethan-1-one]: the IC50 is 100 nM on human TLR7 and 2420 nM against human TLR9.
Turning to `COc1ccc(-c2[nH]c3ccc(C4CCN(CC(=O)N5CC[C@H](N(C)C)C5)CC4)cc3c2CC(F)(F)F)cc1OC` [Example 374, (S)-2-(4-(2-(3,4-dimethoxyphenyl)-3-(2,2,2-trifluoroethyl)-1H-indol-5-yl)piperidin-1-yl)-1-(3-(dimethylamino)pyrrolidin-1-yl) ethan-1-one], the results for the IC50 against human TLR7 and at human TLR9 were 9 nM and 252 nM, respectively.
`COc1ccc(-c2[nH]c3ccc(C4CCN(C(=O)Cc5nnn[nH]5)CC4)cc3c2CC(F)(F)F)cc1OC` [Example 341, 1-(4-(2-(3,4-dimethoxyphenyl)-3-(2,2,2-trifluoroethyl)-1H-indol-5-yl)piperidin-1-yl)-2-(1H-tetrazol-5-yl)ethan-1-one]: the IC50 is 5030 nM against human TLR7 and at least 50000 nM on human TLR9.
For `COc1ccc(-c2[nH]c3ccc(C4CCN(C(=O)NCc5ccco5)CC4)cc3c2CC(F)(F)F)cc1OC` [Example 358, 4-(2-(3,4-dimethoxyphenyl)-3-(2,2,2-trifluoroethyl)-1H-indol-5-yl)-N-(furan-2-ylmethyl)piperidine-1-carboxamide], in that order: at least 50000 nM and at least 50000 nM.
In the case of `COc1ccc(-c2[nH]c3ccc(C4CCNCC4F)cc3c2C(C)C)cc1OC` (single isomer, unassigned) [Example 324, 2-(3,4-dimethoxyphenyl)-5-(3-fluoropiperidin-4-yl)-3-isopropyl-1H-indole], the IC50 at human TLR7 is 51 nM; against human TLR9 it was 3530 nM.

The values above are taken from US11180474B2 (BRISTOL-MYERS SQUIBB COMPANY, priority 2016, dated 2021).
